Experimental data as given in patent US20020004493A1, “Method for the treatment of apolipoprotein E related diseases” (priority 1996, published 2002).

System: E3- or E4-derived 22 kDa apoE fragment on embryonic chick sympathetic neurons
Experiment: Effects of apoE 22 kDa peptides on sympathetic neurons in culture, with dermatan sulfate pre-incubation
Type: cell-based, chicken
Details: 4 μM dermatan sulfate, 10 min pre-incubation; overnight exposure to E3- or E4-derived 22 kDa fragment
Protocol: Since the 22 kDa fragment contains the domain associated with toxicity and corresponds to the major N-terminal proteolytic fragment of apoE, assessment of the efficacy of a compound can first be screened by measuring the inhibition of the 22 kDa toxicity in vitro. The 22 kDa thrombolytic cleavage fragment product of apoE is neurotoxic and is purified from medium of HEK cells transfected with the gene for human apoE4. Neuronal toxicity is then assessed using dissociated embryonic chick sympathetic neurons in 96 well microtiter plates. Following the addition of the fragments, the cultures are incubated overnight. Viability is then assessed by vital dye staining.
Transfected HEK cells are cultured as previously described (LaDu, M. J., et al., J. Biol. Chem. 258:12348-54 (1983)). The apoE is concentrated from conditioned medium by ultrafiltration (10 kDa cut-off membrane, Amicon) followed by heparin column chromatography (heparin-coupled agarose beads, Sigma). […] The wells are washed with fresh F12 medium and images of the stained cells are collected from each well by using a Diaphot inverted fluorescence microscope connected to a Macintosh IIfx computer equipped with a Framegrabber video card. The number of labeled neurons is quantified from the stored images with NIH Image software (version 1.57).

Compound	toxicity of 22 kDa apoE fragment in treated neurons
dermatan sulfate	toxicity is completely ablated

System: apoE peptide toxicity (141-149 domain)
Experiment: not given
Details: peptide with second heparin-binding site, lacking the 141-149 sequence; cited from earlier work

Compound	bioactivity (toxicity) of apoE peptide
E211-243: apoE peptide containing a second heparin-binding site but lacking the 141-149 sequence (GERLRARMEEMGSRTRDRLDEVKEQVAEVRAKL; UniProt P02649 229-261, looked up, fragment) [reference compound]	inactive

Same assay, conditions: polyanionic glycosaminoglycans; cited from earlier work

Compound	effect on apoE peptide-mediated toxicity
chondroitin sulfate	ablation of peptide-mediated toxicity
heparan sulfate	ablation of peptide-mediated toxicity
heparin [reference compound]	ablation of peptide-mediated toxicity

System: toxic apoE fragments (22 kDa) on embryonic chick sympathetic neurons
Experiment: Protection of sympathetic neurons against toxic apoE fragments (vital dye survival count)
Type: cell-based, chicken
Details: 10 min pre-incubation with compound, then toxic 22 kDa apoE fragments, overnight, read-out: C50, the concentration required to prevent 50% cell death as compared to control
Source text: The purified apoE was then digested with thrombin and the resulting fragments separated by HPLC gel filtration chromatography (Bio SEC-Bio Rad). After buffer exchange and lyophilization, the purified 22 kDa fragment was subjected to amino acid analysis. For neurotoxicity studies, lumbar sympathetic chain ganglia were isolated from embryonic day nine chicken embryos (Spafas, Inc., Roanoke, Ill.) under sterile conditions in unsupplemented Ham's F12 medium (Sigma). The dissected chains were exposed to trypsin (0.25%) for 20 minutes at 37° C. The trypsin was inactivated by addition of fetal bovine serum. The chains were washed three times with medium and then triturated with flamed Pasteur pipettes to dissociate the cells. The cells were resuspended in Neurobasal medium (Gibco) and plated into 96-well plates pretreated with poly-ornithine. Dishes were incubated at 37° C. with 5% CO2/95% air. Following overnight incubation, the cells were treated with a range of concentrations of various compounds diluted in F12 medium supplemented with 100 μM putrescine, 20 nM progesterone, 100 μg/ml human transferrin, 30 nM selenium and 1% antibiotics (penicillin-streptomycin). The neuronal cells were pre-incubated for 10 min at 37° C. with a predetermined concentration of compound. The toxic fragments were then added to the culture medium while controls used the corresponding vehicle without the toxic fragments. After overnight incubation, the cells were labeled with a vital dye (5-carboxyfluorescein diacetate, acetoxymethyl ester, Molecular Probes, Eugene, Oreg.) for 30 minutes. The wells were washed with fresh F12 medium and images of the stained cells were collected from each well using a Diaphot inverted fluorescence microscope connected to a MacIntosh IIfx computer equipped with a Framegrabber video card.

Compound	EC50
COc1cc(-c2ccc(N=Nc3ccc4c(S(=O)(=O)O)cc(S(=O)(=O)O)c(N)c4c3O)c(OC)c2)ccc1N=Nc1ccc2c(S(=O)(=O)O)cc(S(=O)(=O)O)c(N)c2c1O [Chicago sky blue 6b]	15 µM
CCOc1ccc(Nc2ccc(C(=C3C=CC(=[N+](CC)Cc4cccc(S(=O)(=O)[O-])c4)C=C3C)c3ccc(N(CC)Cc4cccc(S(=O)(=O)O)c4)cc3C)cc2)cc1 [Coomassie brilliant blue G-250]	40 µM
CCOc1ccc(Nc2ccc(C(=C3C=CC(=[N+](CC)Cc4cccc(S(=O)(=O)[O-])c4)C=C3)c3ccc(N(CC)Cc4cccc(S(=O)(=O)O)c4)cc3)cc2)cc1 [Coomassie brilliant blue R-250]	35 µM
Cc1cc(-c2ccc(N=Nc3ccc4c(S(=O)(=O)O)cc(S(=O)(=O)O)c(N)c4c3O)c(C)c2)ccc1N=Nc1ccc2c(S(=O)(=O)O)cc(S(=O)(=O)O)c(N)c2c1O [Evan's blue]	8 µM
O=S(=O)(O)c1ccc2c(N=Nc3ccc(S(=O)(=O)O)c4ccccc34)c(O)c(S(=O)(=O)O)cc2c1 [amaranth]	25 µM
Cc1cc(-c2ccc(N=Nc3cc(S(=O)(=O)O)c4ccccc4c3N)c(C)c2)ccc1N=Nc1cc(S(=O)(=O)O)c2ccccc2c1N [benzopurpurin 4b]	50 µM
O=S(=O)(O)c1ccc(N=Nc2ccc(N=Nc3c(O)ccc4ccccc34)c(S(=O)(=O)O)c2)cc1 [biebrich scarlet]	40 µM
Cc1c(C2(c3cc(Br)c(O)c(Br)c3C)OS(=O)(=O)c3ccccc32)cc(Br)c(O)c1Br [bromocresol green]	25 µM
O=S1(=O)OC(c2cc(Br)c(O)c(Br)c2)(c2cc(Br)c(O)c(Br)c2)c2ccccc21 [bromophenol blue]	16 µM
O=C(O)c1cc2ccccc2c(N=Nc2c(O)cc(S(=O)(=O)O)c3ccccc23)c1O [calconcarboxylic acid]	10 µM
COc1cc(-c2ccc(N=Nc3c(S(=O)(=O)O)cc4cc(S(=O)(=O)O)cc(N)c4c3O)c(OC)c2)ccc1N=Nc1c(S(=O)(=O)O)cc2cc(S(=O)(=O)O)cc(N)c2c1O [direct blue 15]	18 µM
CCN(Cc1cccc(S(=O)(=O)O)c1)c1ccc(C(=C2C=CC(=[N+](CC)Cc3cccc(S(=O)(=O)[O-])c3)C=C2)c2ccc(S(=O)(=O)O)cc2)cc1 [light green S.F. yellowish]	40 µM
O=S(=O)(O)c1ccc(N=C2C=CC(=C(c3ccc(Nc4ccc(S(=O)(=O)O)cc4)cc3)c3ccc(Nc4ccc(S(=O)(=O)O)cc4)cc3)C=C2)cc1 [methyl blue]	20 µM
O=S(=O)(O)c1ccc(N=Nc2ccc(N=Nc3c(O)c(S(=O)(=O)O)cc4cc(S(=O)(=O)O)ccc34)c(S(=O)(=O)O)c2)cc1 [ponceau S]	5 µM
O=S(=O)(O)c1ccccc1N=Nc1c(S(=O)(=O)O)cc2cc(S(=O)(=O)O)c(N=Nc3ccccc3S(=O)(=O)O)c(O)c2c1O [sulfonazo III]	45 µM
Cc1ccc2nc(-c3ccc(N=NNc4ccc(-c5nc6ccc(C)c(S(=O)(=O)O)c6s5)cc4)cc3)sc2c1S(=O)(=O)O [thiazol yellow G]	25 µM
aniline blue	25 µM
dextran sulfate [dextran sulfate (5 kDa)]	0.8 µM
heparan sulfate	1 µM
pentosan sulfate [reference compound]	1.5 µM
potassium polyvinyl sulfate	0.035 µM

Same assay, conditions: Gallus gallus, Sympathetic neuron, 10 min pre-incubation with compound, then toxic 22 kDa apoE fragments, overnight, read-out: C50, the concentration required to prevent 50% cell death as compared to control

Compound	EC50
O=C(O)C1=CC(=C(c2ccc(O)c(C(=O)O)c2)c2ccc(O)c(C(=O)O)c2)C=CC1=O [aurintricarboxylic acid]	11 µM
Nc1c(S(=O)(=O)O)cc(Nc2ccc(Nc3nc(Cl)nc(Nc4ccccc4S(=O)(=O)O)n3)c(S(=O)(=O)O)c2)c2c1C(=O)c1ccccc1C2=O [cibacron blue]	20 µM
Nc1c(/N=N/c2ccc(-c3ccc(/N=N/c4cc(S(=O)(=O)O)c5ccccc5c4N)cc3)cc2)cc(S(=O)(=O)O)c2ccccc12 [congo red]	25 µM
O=C1OC(c2ccc(O)c(S(=O)(=O)O)c2)(c2ccc(O)c(S(=O)(=O)O)c2)c2c(Br)c(Br)c(Br)c(Br)c21 [sulfobromophthalein]	32 µM
Cc1ccc(C(=O)Nc2ccc(S(=O)(=O)O)c3cc(S(=O)(=O)O)cc(S(=O)(=O)O)c23)cc1NC(=O)c1cccc(NC(=O)Nc2cccc(C(=O)Nc3cc(C(=O)Nc4ccc(S(=O)(=O)O)c5cc(S(=O)(=O)O)cc(S(=O)(=O)O)c45)ccc3C)c2)c1 [suramin sodium, reference compound]	5 µM
Cc1cc(-c2ccc(/N=N/c3c(S(=O)(=O)O)cc4cc(S(=O)(=O)O)cc(N)c4c3O)c(C)c2)ccc1/N=N/c1c(S(=O)(=O)O)cc2cc(S(=O)(=O)O)cc(N)c2c1O [trypan blue]	20 µM
